The values that follow come from patent US8293465B2, “Method for the detection of human immunodeficiency virus envelope (HIV) glycoprotein utilizing carbohydrate binding module (CBM) 20 or 21” (priority 2009, dated 2012).

Test [1] deals with T1, AnSBD binding to HIV Ag & Ab positive panel (Aspergillus niger, UniProt P69328).
T1 construct: made in house; host or cells: E. coli (pET15b, printed 'pET15Bb')
To be noted: 10 mM competitor; AnSBD coated plate; FIG. 6B. As for the experimental part: (§1) Ten millimolar maltoheptaose (G7 glycan) and β-cyclodextrin (βCD) (Sigma-Aldrich, St. Louis, Mo.) were dissolved in PBS plus 5% BSA and mixed with the same volume of HIV Ag & Ab positive panel at 37° C. for 1 hr. After adding the mixture to RoSBD coated plate (100 nM in 0.05 M Tris-Hcl, pH 8) or AnSBD coated plate (100 nM in 0.05 M sodium bicarbonate buffer, pH 9.5) at 37° C. for 1 hr, 100 μL HRP coupled HIV1 recombinant gp120 antigen conjugate (0.05 μg/mL) was used for detection.
(§2) HIV Ag & Ab positive panel was separately mixed with the same volume of 500 nM human IgG1 secondary antibody, 2G12 monoclonal antibody, and 250 nM HIV1 gp140 antigen at 37° C. for 1 hr. After adding the mixture to (a) RoSBD coated (100 nM in 0.05 M Tris-Hcl, pH 8) and (b) AnSBD coated plate (100 nM in 0.05 M sodium bicarbonate buffer, pH 9.5) individually at 37° C. for 1 hr, 100 μL HRP coupled HIV1 recombinant gp120 antigen conjugate (0.05 μg/mL) was used for detection.

In test [2] the target is T2, RoSBD binding to HIV Ag & Ab positive panel (Rhizopus oryzae, UniProt P07683).
T2 construct: made in house; host or cells: E. coli (pET23a)
Nature of the test: Competition of HIV-RoSBD binding, ELISA on RoSBD coated plate. To be noted: 10 mM competitor, FIG. 6A. As to the method:
as §1, §2
Background: In an ELISA, binding on a coated surface is turned into a signal by an enzyme label.

The subject of test [3] is HIV Ag & Ab positive panel (possibly native HIV gp120 antigen glycoprotein). Nature of the test: HIV-RoSBD binding analysis, sandwich ELISA on SBD coated plates. As for the experimental part:
At first 100 μL of 100 nM AnSBD/RoSBD were coated on individual well of a 96-well plate (Greiner-Bio One GmbH, Frickenhausen, Germany) in sodium bicarbonate buffer (pH 9.5)/Tris-HCl buffer (pH 8) via 16-hr incubation at 4° C. The plate was washed with PBST [10 mM Phosphate Buffered Saline (pH 7.0) plus 0.05% Tween-20], then 200 μL blocking buffer [0.01 M Phosphate Buffered Saline (pH 7.0) plus 5% BSA] was added to each well and incubated at 37° C. for 2 hr. The blocking buffer was removed and the plate was dried at 25° C. for 1 hr. […] To test the specificity of the SBD binding to HIV, HCV test sample and HCV recombinant antigen (Core+NS3+NS5)-HRP conjugate (0.33 μg/mL) were analyzed following the same protocol in parallel. Finally, the plates were developed by adding 100 μL 3,3′,5,5′-tetramethylbenzidibe (TMB) at 37° C. for […] The absorbance was measured at 450 nm in ELISA reader after the reaction was stopped by addition of 100 μL 2 N H2SO4 in each well. These absorbance values were compiled as a statistical value (Cut off value; COV) and described in terms of cut off index (COI) value. The COV was calculated as the OD value of negative control (Normal Human Serum) plus 0.1 (COV=NC+0.1). The COI value was calculated as the OD value of test sample divided by COV. […]

The nature of test [4]: Glycan array screening of RoSBD (CFG Core H, version 3.1). To be noted: among 377 glycans; FIG. 1A. Format: binding. As to the method: RoSBD was produced in E. coli system using pET23a expression vector and purified using amylose resin as previously described. Glycan microarray analyses were conducted by the Consortium for Functional Glycomics, Core H facility. The array contained a total of 377 different natural and synthetic glycans and version 3.1 was used for the analyses reported here. Briefly, RoSBD was diluted to […] in sodium acetate binding buffer (50 mM sodium acetate pH 5.5, 1% BSA and 0.05% Tween-20). Seventy microliters was applied to the printed surface of the array, coverslipped, and incubated at room temperature in a humidified chamber away from light for 1 hr. After the incubation, the coverslip was removed and rinsed four times in TSM buffer [50 mM Tris-HCI (pH 7.5), 10 mM MgCl2, and 0.5 M sucrose] and four times in TSM buffer. Seventy microliters of Anti-RoSBD monoclonal antibody, diluted to 1:200 in PBS binding buffer, was applied to the printed surface of the microarray and incubated in a humidified chamber for 1 hr. Washes were performed as above. To detect binding, the secondary antibody incubation was performed with Alexa488-labeled goat anti-mouse IgG at […] in PBS buffer for one hour in a humidified chamber, followed by wash steps. The binding image was read in a Perkin-Elmer Microarray XL4000 scanner and analyzed using Imagene (V.6) image analysis software. […]

Take maltoheptaose: the competitive inhibition rate in test [1] turned out to be 45.9%; in test [2] it was 24.4%.
On to `OC[C@H]1O[C@@H]2O[C@H]3[C@H](O)[C@@H](O)[C@@H](O[C@H]4[C@H](O)[C@@H](O)[C@@H](O[C@H]5[C@H](O)[C@@H](O)[C@@H](O[C@H]6[C@H](O)[C@@H](O)[C@@H](O[C@H]7[C@H](O)[C@@H](O)[C@@H](O[C@H]8[C@H](O)[C@@H](O)[C@@H](O[C@H]1[C@H](O)[C@H]2O)O[C@@H]8CO)O[C@@H]7CO)O[C@@H]6CO)O[C@@H]5CO)O[C@@H]4CO)O[C@@H]3CO` [β-cyclodextrin], for which the figures for the competitive inhibition rate in test [1] and in test [2] were 14.3% and 23.1%, respectively.

B1: RoSBD: starch binding domain, CBM family 21, derived from Rhizopus oryzae glucoamylase, produced in E. coli (protein)
chain: ASIPSSASVQLDSYNYDGSTFSGKIYVKNIAYSKKVTVIYADGSDNWNNNGNTIAASYSAPISGSNYEYWTFSASINGIKEFYIKYEVSGKTYYDNNNSANYQVST
Turning to B1, the “specificity of binding, HIV panel versus Anti-HCV mixed titer performance panel” value in test [3] (Anti-HCV panel PHV205-24 in parallel, P<0.0001, FIG. 4B) is “specific”. Further, in test [3] (HIV Ag & Ab positive panel #9144532, COI > 1 is positive, FIG. 4A), the “maximal COI value of binding” value worked out at 2.298. For the same molecule, the “glycan recognition (interaction signal on glycan array)” value in test [4] is “only Manα(1,2)Manα(1,2)Manα(1,2)Manα(1,3) (No. 187) showed evident interaction signal”.
